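Grown in 96-well plates, cells were treated for 48 hours with each compound at five concentrations. Insufficient inhibition: endpoint recorded as highest concentration tested. The concentration for 50% growth inhibition is given as GI50. TGI: concentration producing complete growth inhibition.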
Key:
Assay in all cases: NCI-60 cell line screen, 48 h
[1] = tested on: SF-539 CNS
[2] = tested on: OVCAR-5 ovarian
[3] = tested on: MOLT-4 leukemia
[4] = tested on: EKVX NSCLC
[5] = tested on: SF-295 CNS
[6] = tested on: HT29 colon
[7] = tested on: NCI-H460 lung
[8] = tested on: CAKI-1 renal
[9] = tested on: SNB-75 CNS
[10] = tested on: SW-620 colon

Row | Compound | GI50 [1] | TGI [1] | GI50 [2] | TGI [2] | GI50 [3] | TGI [3] | GI50 [4] | TGI [4] | GI50 [5] | TGI [5] | GI50 [6] | TGI [6] | GI50 [7] | TGI [7] | GI50 [8] | TGI [8] | GI50 [9] | TGI [9] | GI50 [10] | TGI [10]
1 | C[C@]12CC/C(=N\O)C[C@@H]1CC[C@@H]1[C@@H]2CC[C@]2(C)/C(=N/O)CC[C@@H]12 | 37.9 µM | > 100 µM | 46.1 µM | > 100 µM | 64.4 µM | > 100 µM | 44.6 µM | > 100 µM | 38.2 µM | > 100 µM | 42.7 µM | > 100 µM | 34.2 µM | > 100 µM | 25.4 µM | 86.2 µM | 37.3 µM | > 100 µM | 57.1 µM | > 100 µM
2 | CC(/C=C/C=C\C=C\C=C(/C)C(=O)NC(C)CO)=C\C(C)C(O)/C(C)=C/C(C)CCc1ccccc1 (stereo not drawn) |  | 27.1 µM |  | 31 µM |  | 55.6 µM |  | > 80.6 µM |  | 13.4 µM |  | 25.2 µM |  | 26.5 µM |  | 54.1 µM |  | 26.7 µM |  | 28.4 µM
3 | S=P(C1CCCCC1)(C1CCCCC1)C(c1cccnc1)N1CCCC1 (stereo not drawn) |  | 35.2 µM |  | > 100 µM |  | 42.7 µM |  | 41.7 µM |  | 49.2 µM |  | > 100 µM |  | 50.7 µM |  | 31.9 µM |  | 35.4 µM |  | > 100 µM
4 | O=c1[nH]ccc2nc(N3CCC(O)CC3)nc(Nc3ccc(N4CCOCC4)cc3)c12 | 2.85 µM | 11.2 µM | 3.38 µM | > 100 µM | > 83.8 µM | > 100 µM | > 38.3 µM | > 100 µM | > 100 µM | > 100 µM | 1.06 µM | > 100 µM | 2.38 µM | > 100 µM | 0.367 µM | > 100 µM | 2.39 µM | 12.1 µM | 1.75 µM | > 100 µM
5 | CC[C@]12C=CCN3CC[C@@]4(c5ccc(OC)cc5N(C)[C@H]4[C@@](O)(C(=O)OC)[C@@H]1OC(=O)CCCC[P+](c1ccccc1)(c1ccccc1)c1ccccc1)[C@@H]32 | 0.993 µM | 12.1 µM | 1.82 µM | 12.5 µM | 1.36 µM | 5.29 µM | 0.907 µM | 15.8 µM | 2.65 µM | 9.04 µM | 0.441 µM | 5.48 µM | 1.7 µM | 11.6 µM | 3.61 µM | 13.7 µM | 0.357 µM | 2.08 µM | 1.14 µM | 12.6 µM
6 | O=c1/c(=C/c2ccccc2O)sc2nc3ccccc3n12 |  | > 100 µM |  | > 100 µM |  | 43.7 µM |  | 82 µM |  | > 100 µM |  | > 100 µM |  | > 100 µM |  | > 100 µM |  | > 100 µM |  | > 100 µM
7 | OCCNC(=S)Nc1ccc(-c2nc(N3C[C@H]4CC[C@@H](C3)O4)c3cccn3n2)cc1 | 0.108 µM | 0.767 µM | 0.0379 µM | 15.3 µM | 0.09 µM | 17.1 µM | 0.0629 µM | 6.59 µM | 0.0328 µM | 0.265 µM | 0.117 µM | 22.5 µM | 0.0312 µM | 19.4 µM | 0.132 µM | > 37.8 µM | < 0.0124 µM | 0.264 µM | 0.203 µM | 13.8 µM
8 | Cc1ccc(C(=O)Nc2ccc(CN3CCN(C)CC3)c(C(F)(F)F)c2)cc1C#Cc1cnc(N)c2ccc(C#N)cc12 | 3.52 µM | 12.3 µM | 5.85 µM | 16.4 µM | 0.105 µM | > 12 µM | 9.46 µM | > 50 µM | 8.85 µM | > 50 µM | 0.211 µM |  | 0.557 µM | 16.6 µM | 0.0865 µM | 8.48 µM | 0.0468 µM | 13.4 µM | 1.8 µM | > 28.3 µM
9 | Cc1cc(C)nc(NS(=O)(=O)c2ccc(Nc3nc4nc(NCc5ccccc5)nc(-c5ccc(O)cc5)c4c(=O)[nH]3)cc2)n1 | > 100 µM | > 100 µM | > 100 µM | > 100 µM | 2.38 µM | 12.8 µM | 35.1 µM | > 100 µM | 16.7 µM | 95 µM | 57.9 µM | > 100 µM | 49.9 µM | > 100 µM | 57.2 µM | > 100 µM | 64.6 µM | > 100 µM | 26.7 µM | > 100 µM
10 | COc1ccc2c3c(ccc2c1)NC(C(=O)O)CC3 (stereo not drawn) |  | > 100 µM |  | > 100 µM |  | 56.9 µM |  | > 100 µM |  | > 100 µM |  | > 100 µM |  | > 100 µM |  | > 100 µM |  | > 100 µM |  | > 100 µM
11 | Cc1ccccc1NC(=O)N/C(N)=N/c1nc(C)c(C)s1 | 0.254 µM | 4.38 µM | 0.912 µM | > 100 µM | 0.467 µM | > 100 µM | 0.542 µM | > 100 µM | 0.164 µM | > 100 µM | 0.104 µM | > 33 µM | 0.376 µM | > 100 µM | 0.197 µM | 97.1 µM | 0.175 µM | 0.754 µM | 0.163 µM | > 100 µM
12 | COc1ccc(C2CC(c3ccc4ccccc4c3)=NN2/C=C2\SC(=S)N(NC(=O)Cc3ccccc3Nc3c(Cl)cccc3Cl)C2=O)cc1 (stereo not drawn) | 0.282 µM | 1.12 µM | 1.74 µM | > 45.6 µM | 0.473 µM | > 100 µM | 1.45 µM | > 61.5 µM | 0.724 µM | > 32.7 µM | 2.3 µM | > 26.3 µM | 0.388 µM | > 34 µM | 0.392 µM | > 40 µM | 0.257 µM | 1.4 µM | 0.416 µM | > 52.7 µM
13 | CCCCCCCC(=O)SCC/C=C/[C@@H]1CC(=O)NCc2cccc(n2)C2=N[C@@](C)(CS2)C(=O)N[C@@H](C(C)C)C(=O)O1 | 0.0563 µM | > 33.3 µM | 0.0254 µM | > 33.3 µM | 0.0702 µM | > 33.3 µM | 0.0869 µM | > 33.3 µM | 0.0623 µM | 0.546 µM | 0.0256 µM | > 33.3 µM | 0.0167 µM | > 33.3 µM | 0.174 µM |  | 0.029 µM | > 33.3 µM | 0.0921 µM | 3.72 µM
14 | COC(=O)c1ccc(CS(=O)(=O)c2ccccc2)cc1 |  | > 100 µM |  | > 100 µM |  | > 100 µM |  | > 100 µM |  | > 100 µM |  | > 100 µM |  | > 100 µM |  | > 100 µM |  | > 100 µM |  | > 100 µM
